Results: patent publication EP4755889A1, “COMPOUND FOR DETECTING AMYLOID-BETA OLIGOMER AND METHOD FOR DIAGNOSING DEGENERATIVE BRAIN DISEASE USING SAME” (Amyloid Solution Inc., priority 2024, dated 2025)

How the values were obtained:
Format in all cases: binding
Aβ1-42 oligomers [1] = target: T1, Aβ1-42 oligomers (Homo sapiens, UniProt P05067); experiment: Selectivity for Aβ variant oligomers (fluorescence); conditions: oligomeric Aβ variants 10 µM each; IK15j (10 µM)
T1 construct: Aβ1-42 peptide was aggregated at 37 °C for 8 hours
Description: Accordingly, Aβ variant oligomers were prepared and incubated with IK15j to investigate the selectivity of the compound for Aβ variants. Briefly, samples of oligomeric Aβ1-40, Aβ1-42, and AβpE3-42 (10 µM each) were each treated with IK15j (10 µM), and the fluorescence intensity of each Aβ variant sample was measured.

albumin = target: T2, albumin (Homo sapiens, UniProt P02768); experiment: Selectivity for blood proteins: albumin; conditions: IK15j (25 µM)
T2 construct: purchased Sigma-Aldrich
Description: (§1) Aβ1-42 peptide was aggregated at 37 °C for 8 hours, and 25 µM of Aβ1-42 oligomers, albumin (Sigma-Aldrich, USA), and fibrinogen (Sigma-Aldrich, USA) were seeded into a black microplate. Each sample was treated with IK15j (100 µM) for 8 hours at room temperature. The signal of each sample was detected using a microplate reader (λex = 285 nm / λem = 475 nm).
(§2) Excluding water, the solid components of plasma consist of coagulation factors and plasma proteins. Albumin is the most abundant protein in plasma, and fibrinogen is a major coagulation factor in plasma. Considering the possibility that fibrinogen or albumin might interact with AD diagnostic tools and interfere with compound selectivity, IK15j (25 µM) was incubated with Aβ1-42, albumin, or fibrinogen as described in Reference Example 10, and the fluorescence signal of each sample was measured to evaluate the selectivity of the compound of the present disclosure against these proteins.

fibrinogen = target: T3, fibrinogen (Homo sapiens, UniProt P02671+P02675+P02679); experiment: Selectivity for blood proteins: fibrinogen; conditions: IK15j (25 µM)
T3 construct: purchased Sigma-Aldrich
T3 sequence (P02671 20-629 limits assumed): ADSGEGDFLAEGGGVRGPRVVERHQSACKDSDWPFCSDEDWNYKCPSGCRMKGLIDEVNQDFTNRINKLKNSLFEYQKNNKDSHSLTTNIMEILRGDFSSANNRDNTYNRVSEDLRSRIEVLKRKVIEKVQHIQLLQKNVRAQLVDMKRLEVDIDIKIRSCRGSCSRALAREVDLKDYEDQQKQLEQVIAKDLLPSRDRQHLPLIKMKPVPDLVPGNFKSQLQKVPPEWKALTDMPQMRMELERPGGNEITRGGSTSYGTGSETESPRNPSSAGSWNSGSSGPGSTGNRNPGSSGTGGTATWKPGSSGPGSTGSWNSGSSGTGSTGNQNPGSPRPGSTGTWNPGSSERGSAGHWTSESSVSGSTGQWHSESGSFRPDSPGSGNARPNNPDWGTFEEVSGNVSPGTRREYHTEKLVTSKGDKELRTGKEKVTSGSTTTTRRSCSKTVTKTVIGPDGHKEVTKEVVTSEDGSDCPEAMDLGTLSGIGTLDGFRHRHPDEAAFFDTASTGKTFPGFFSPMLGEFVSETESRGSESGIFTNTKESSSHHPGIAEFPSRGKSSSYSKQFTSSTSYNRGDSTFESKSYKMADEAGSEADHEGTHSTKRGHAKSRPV
T3 sequence (P02675 31-491): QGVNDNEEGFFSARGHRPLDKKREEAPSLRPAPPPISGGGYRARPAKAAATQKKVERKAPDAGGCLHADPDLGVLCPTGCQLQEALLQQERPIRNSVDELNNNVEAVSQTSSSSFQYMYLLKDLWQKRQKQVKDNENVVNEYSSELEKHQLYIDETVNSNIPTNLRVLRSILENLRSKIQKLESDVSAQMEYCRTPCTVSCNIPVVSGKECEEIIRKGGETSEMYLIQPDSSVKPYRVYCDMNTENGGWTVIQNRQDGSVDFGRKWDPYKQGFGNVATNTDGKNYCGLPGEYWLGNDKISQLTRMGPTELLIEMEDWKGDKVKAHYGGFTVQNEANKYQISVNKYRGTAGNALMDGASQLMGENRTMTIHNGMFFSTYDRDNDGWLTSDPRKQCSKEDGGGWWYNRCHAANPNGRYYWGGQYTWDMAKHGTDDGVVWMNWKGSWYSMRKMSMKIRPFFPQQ
T3 sequence (P02679 27-453): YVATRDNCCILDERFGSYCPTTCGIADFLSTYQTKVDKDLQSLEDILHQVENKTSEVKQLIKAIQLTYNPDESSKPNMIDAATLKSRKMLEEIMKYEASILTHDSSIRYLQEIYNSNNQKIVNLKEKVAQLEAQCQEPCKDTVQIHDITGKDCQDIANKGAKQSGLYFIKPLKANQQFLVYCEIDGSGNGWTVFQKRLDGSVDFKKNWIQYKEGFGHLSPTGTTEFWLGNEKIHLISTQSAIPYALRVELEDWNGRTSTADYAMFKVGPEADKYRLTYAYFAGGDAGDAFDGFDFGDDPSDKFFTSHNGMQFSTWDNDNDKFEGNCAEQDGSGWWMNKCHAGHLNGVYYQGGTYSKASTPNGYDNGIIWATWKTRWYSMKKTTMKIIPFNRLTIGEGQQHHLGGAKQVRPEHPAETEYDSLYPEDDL
Description: as §1, §2

Aβ1-42 oligomers [2] = target: T1, Aβ1-42 oligomers; experiment: Co-incubation with Aβ1-42 oligomers and albumin; conditions: co-incubated with Aβ1-42 oligomers and albumin
Description: Full-length Aβ1-42 peptide was immobilized on a maleimide-activated microplate. Then, the plate was treated with additional Aβ1-42 peptide (10 µM) at 37°C for 8 hours. After peptide immobilization, unbound peptides were removed by washing three times with 200 µL of wash buffer. To form albumin-Aβ oligomer complexes, the plate was treated with albumin (10 µM, Sigma-Aldrich, USA) at room temperature for 24 hours, and unbound residues were removed by washing three times with 200 µL of wash buffer. The control Aβ oligomer wells were not treated with albumin. Each well was treated with the compound of the present disclosure (100 µM), and the signal of each sample was detected using a microplate reader (λex = 285 nm / λem = 475 nm).
In addition, to investigate whether albumin interferes with the binding between IK15j and Aβ1-42 oligomers, IK15j was co-incubated with Aβ1-42 oligomers and albumin as described in Reference Example 11, and the fluorescence signal of each sample was analyzed.

T1 sequence (P05067 672-713): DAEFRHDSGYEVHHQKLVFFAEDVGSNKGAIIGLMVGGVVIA
T2 sequence (P02768 25-609, species assumed): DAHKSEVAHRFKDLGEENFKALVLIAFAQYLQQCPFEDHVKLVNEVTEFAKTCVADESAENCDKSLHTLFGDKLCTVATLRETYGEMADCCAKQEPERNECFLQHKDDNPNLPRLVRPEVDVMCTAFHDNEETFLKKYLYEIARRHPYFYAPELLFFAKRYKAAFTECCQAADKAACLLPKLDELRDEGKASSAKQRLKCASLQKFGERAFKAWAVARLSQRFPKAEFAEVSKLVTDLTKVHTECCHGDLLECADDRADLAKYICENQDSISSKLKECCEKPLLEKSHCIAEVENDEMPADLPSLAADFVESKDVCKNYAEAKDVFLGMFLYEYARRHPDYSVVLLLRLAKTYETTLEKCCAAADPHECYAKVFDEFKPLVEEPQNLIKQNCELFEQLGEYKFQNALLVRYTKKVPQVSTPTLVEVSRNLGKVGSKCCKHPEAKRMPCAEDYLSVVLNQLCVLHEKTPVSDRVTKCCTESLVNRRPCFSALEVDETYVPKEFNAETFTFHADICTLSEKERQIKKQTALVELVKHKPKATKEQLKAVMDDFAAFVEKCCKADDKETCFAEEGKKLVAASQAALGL

Cc1ccc2c(c1)c(-c1ccccc1)cn1c(C)cc(C#N)c21 [IK15j, 3,8-dimethyl-6-phenylpyrrolo[2,1-a]isoquinoline-1-carbonitrile]
fluorescence intensity in the presence of Aβ1-42 oligomers compared to Aβ1-40 or AβpE3-42 oligomers (Aβ1-42 oligomers [1]): increased markedly | interaction with albumin (albumin): did not interact | interaction with fibrinogen (fibrinogen): did not interact | signal of Aβ1-42 oligomer and albumin sample compared to Aβ1-42 oligomer-only sample (Aβ1-42 oligomers [2]): decreased compared to the Aβ1-42 oligomer-only sample, the difference was not significant
